Assays:
[1] = compound: Nc1ccn([C@@H]2O[C@H](CO)[C@@H](O)C2(F)F)c(=O)n1 [Gemcitabine]; settings: max 0.3 µM
Method in brief: (§1)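 Following 24 hours at 37°C and 5% CO2, cancer cell lines in 1536-well plates with 7.5 μl DMEM/F12 or RPMI and 10% FBS were dosed for 72 hours, final DMSO typically being 0.2%. CellTiter-Glo 2.0 luminescence, scaled between blank-well and DMSO-well means, gave the viability readout. Dose responses were fitted to a two-parameter logistic curve with a non-linear mixed effects model, and the single-agent IC50 was derived from this fit.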

[2] = compound: CC(=O)O[C@H]1C(=O)[C@@]2(C)[C@H]([C@H](OC(=O)c3ccccc3)[C@]3(O)C[C@H](OC(=O)[C@H](O)[C@@H](NC(=O)c4ccccc4)c4ccccc4)C(C)=C1C3(C)C)[C@]1(OC(C)=O)CO[C@@H]1C[C@@H]2O [Paclitaxel]; settings: max 3 µM
Method in brief: as §1

[3] = compound: Cc1nc(-c2cn3c(n2)-c2ccc(-c4cnn(C(C)(C)C(N)=O)c4)cc2OCC3)n(C(C)C)n1 [Taselisib]; settings: max 10 µM
Method in brief: as §1

[4] = compound: Cc1c2c(nn1C)CSCc1cc(n(C)n1)CSc1cc(c3ccccc3c1)OCCCc1c(C(=O)O)n(C)c3c-2c(Cl)ccc13 [AZD5991]; settings: max 1 µM
Method in brief: as §1

[5] = compound: COc1cc2ncnc(Nc3ccc(F)c(Cl)c3)c2cc1OCCCN1CCOCC1 [Gefitinib]; settings: max 10 µM
Method in brief: as §1

[6] = compound: C=CCn1c(=O)c2cnc(Nc3ccc(N4CCN(C)CC4)cc3)nc2n1-c1cccc(C(C)(C)O)n1 [AZD1775]; settings: max 3 µM
Method in brief: as §1

[7] = compound: CCN(CCO)CCCOc1ccc2c(Nc3cc(CC(=O)Nc4cccc(F)c4)[nH]n3)ncnc2c1 [AZD2811]; settings: max 1 µM
Method in brief: as §1

[8] = compound: Cn1cnc2c(F)c(Nc3ccc(Br)cc3Cl)c(C(=O)NOCCO)cc21 [Selumetinib]; settings: max 10 µM
Method in brief: as §1

[9] = compound: CC1=CN2[C@@H](C1)C=NC3=CC(=C(C=C3C2=O)OC)OCCCCCOC4=C(C=C5C(=C4)N=C[C@@H]6CC(=CN6C5=O)C)OC [SG3199]; settings: max 0.001 µM
Method in brief: as §1

[10] = compound: COc1cc([C@@H]2c3cc4c(cc3[C@@H](O[C@@H]3O[C@@H]5CO[C@@H](C)O[C@H]5[C@H](O)[C@H]3O)[C@H]3COC(=O)[C@H]23)OCO4)cc(OC)c1O [Etoposide]; settings: max 10 µM
Method in brief: as §1

[11] = compound: C1CN(CCC1(C(=O)N[C@@H](CCO)C2=CC=C(C=C2)Cl)N)C3=NC=NC4=C3C=CN4 [AZD5363]; settings: max 10 µM
Method in brief: as §1

[12] = compound: CCc1c2c(nc3ccc(O)cc13)-c1cc3c(c(=O)n1C2)COC(=O)[C@]3(O)CC [SN-38]; settings: max 0.3 µM
Method in brief: as §1

[13] = compound: CC(=O)c1c(C)c2cnc(Nc3ccc(N4CCNCC4)cn3)nc2n(C2CCCC2)c1=O [Palbociclib]; settings: max 10 µM
Method in brief: as §1

[14] = compound: CC1=C(C(=CC=C1)Cl)NC(=O)C2=CN=C(S2)NC3=CC(=NC(=N3)C)N4CCN(CC4)CCO [Dasatinib]; settings: max 2 µM
Method in brief: as §1

[15] = compound: COc1cccc(OCCCN)c1-c1cc(Nc2cnc(C#N)cn2)n[nH]1 [Prexasertib]; settings: max 1 µM
Method in brief: as §1

[16] = compound: N#Cc1cnc(Nc2cc(NC[C@H]3CNCCO3)c(C(F)(F)F)cn2)cn1 [SRA737]; settings: max 10 µM
Method in brief: as §1

[17] = compound: CC1(C)CCC(CN2CCN(c3ccc(C(=O)NS(=O)(=O)c4ccc(NCC5CCOCC5)c([N+](=O)[O-])c4)c(Oc4cnc5[nH]ccc5c4)c3)CC2)=C(c2ccc(Cl)cc2)C1 [Venetoclax]; settings: max 1 µM
Method in brief: as §1

[18] = compound: COc1nnc2ccc(N3CCC(c4ccc(OCCN5CCN(C)C(=O)[C@H]5C)cc4)CC3)nn12 [AZD5153]; settings: max 1 µM
Method in brief: as §1

[19] = compound: O=C(c1cc(Cc2n[nH]c(=O)c3ccccc23)ccc1F)N1CCN(C(=O)C2CC2)CC1 [Olaparib]; settings: max 10 µM
Method in brief: as §1

[20] = compound: CN(CC[C@H](CSC1=CC=CC=C1)NC2=C(C=C(C=C2)S(=O)(=O)NC(=O)C3=CC=C(C=C3)N4CCC(CC4)[C@H](C5=CC=CC=C5C6=CC=C(C=C6)Cl)O)S(=O)(=O)C(F)(F)F)CCO [AZD4320]; settings: max 1 µM
Method in brief: as §1

[21] = compound: C[C@@H](c1ccc2nccn2c1)n1nnc2ncc(-c3cnn(C)c3)nc21 [Savolitinib]; settings: max 1 µM
Method in brief: as §1

[22] = compound: CC(C)n1c(=O)n(C)c2cnc3cc(F)c(-c4ccc(OCCCN5CCCCC5)nc4)cc3c21 [AZD1390]; settings: max 0.3 µM
Method in brief: as §1

[23] = compound: O=c1[nH]cc(F)c(=O)[nH]1 [5-Fluorouracil]; settings: max 20 µM
Method in brief: as §1

[24] = compound: C1CC(C1)(C(=O)[O-])C(=O)[O-].N.N.[Pt+2] [Carboplatin]; settings: max 10 µM
Method in brief: as §1

[25] = compound: C[C@@H]1COCCN1C2=NC(=NC(=C2)C3(CC3)[S@](=N)(=O)C)C4=C5C=CNC5=NC=C4 [AZD6738]; settings: max 10 µM
Method in brief: as §1

[26] = compound: COc1cccc2c1C(=O)c1c(O)c3c(c(O)c1C2=O)C[C@@](O)(C(=O)CO)C[C@@H]3O[C@H]1C[C@H](N)[C@H](O)[C@H](C)O1 [Doxorubicin]; settings: max 1 µM
Method in brief: as §1

[27] = compound: CN(C)CCCOc1ccc(-c2ccc3ncc4c(c3c2)n(C2CCOCC2)c(=O)n4C)cn1 [AZD0156]; settings: max 3 µM
Method in brief: as §1

[28] = compound: NC1(c2ccc(-c3nc4ccn5c(=O)[nH]nc5c4cc3-c3ccccc3)cc2)CCC1 [MK-2206]; settings: max 10 µM
Method in brief: as §1

[29] = compound: CC(=O)Nc1cccc(-n2c(=O)n(C3CC3)c(=O)c3c(Nc4ccc(I)cc4F)n(C)c(=O)c(C)c32)c1 [Trametinib]; settings: max 1 µM
Method in brief: as §1

[30] = compound: O=C(Nc1ccc2[nH]nc(-c3ccncc3)c2c1)[C@@H]1CCN(CC(=O)N2CCN(c3ccc(-c4ncccn4)cc3)CC2)C1; settings: max 5 µM
Method in brief: as §1

[31] = compound: COc1cc(Nc2ncc3c(n2)-c2ccc(Cl)cc2C(c2c(F)cccc2OC)=NC3)ccc1C(=O)O [Alisertib]; settings: max 10 µM
Method in brief: as §1

[32] = compound: Cc1cc2ncnn2cc1Nc1ncc2c(n1)n(C1CCOCC1)c(=O)n2C [AZD7648]; settings: max 10 µM
Method in brief: as §1

[33] = compound: C[C@@H](Nc1cc(F)cc(F)c1)c1cc(C(=O)N(C)C)cc2c(=O)cc(N3CCOCC3)oc12 [AZD8186]; settings: max 10 µM
Method in brief: as §1

[34] = compound: C[C@@H](Oc1cc(-c2cnn(C3CCNCC3)c2)cnc1N)c1c(Cl)ccc(F)c1Cl [Crizotinib]; settings: max 10 µM
Method in brief: as §1

[35] = compound: CS(=O)(=O)CCNCc1ccc(-c2ccc3ncnc(Nc4ccc(OCc5cccc(F)c5)c(Cl)c4)c3c2)o1 [Lapatinib]; settings: max 10 µM
Method in brief: as §1

| Cell Line | IC50, cell viability 72 h [1] [µM] | IC50, cell viability 72 h [2] [µM] | IC50, cell viability 72 h [3] [µM] | IC50, cell viability 72 h [4] [µM] | IC50, cell viability 72 h [5] [µM] | IC50, cell viability 72 h [6] [µM] | IC50, cell viability 72 h [7] [µM] | IC50, cell viability 72 h [8] [µM] | IC50, cell viability 72 h [9] [µM] | IC50, cell viability 72 h [10] [µM] | IC50, cell viability 72 h [11] [µM] | IC50, cell viability 72 h [12] [µM] | IC50, cell viability 72 h [13] [µM] | IC50, cell viability 72 h [14] [µM] | IC50, cell viability 72 h [15] [µM] | IC50, cell viability 72 h [16] [µM] | IC50, cell viability 72 h [17] [µM] | IC50, cell viability 72 h [18] [µM] | IC50, cell viability 72 h [19] [µM] | IC50, cell viability 72 h [20] [µM] | IC50, cell viability 72 h [21] [µM] | IC50, cell viability 72 h [22] [µM] | IC50, cell viability 72 h [23] [µM] | IC50, cell viability 72 h [24] [µM] | IC50, cell viability 72 h [25] [µM] | IC50, cell viability 72 h [26] [µM] | IC50, cell viability 72 h [27] [µM] | IC50, cell viability 72 h [28] [µM] | IC50, cell viability 72 h [29] [µM] | IC50, cell viability 72 h [30] [µM] | IC50, cell viability 72 h [31] [µM] | IC50, cell viability 72 h [32] [µM] | IC50, cell viability 72 h [33] [µM] | IC50, cell viability 72 h [34] [µM] | IC50, cell viability 72 h [35] [µM] |
| --- | --- | --- | --- | --- | --- | --- | --- | --- | --- | --- | --- | --- | --- | --- | --- | --- | --- | --- | --- | --- | --- | --- | --- | --- | --- | --- | --- | --- | --- | --- | --- | --- | --- | --- | --- |
| SW1463 (Colorectal Carcinoma) | > 0.3 | > 3 | > 10 | > 1 | 3.27 | > 3 | > 1 | 4.95 | > 0.001 | > 10 | > 10 | > 0.3 | 7.12 | > 2 | 0.288 | > 10 | > 1 | > 1 | > 10 | > 1 | > 1 | > 0.3 | > 20 | > 10 | > 10 | > 1 | > 3 | > 10 | 0.0784 | > 5 | > 10 | > 10 | > 10 | > 10 | > 10 |
| GCIY (Gastric Carcinoma) | > 0.3 | 0.549 | 0.895 | > 1 | > 10 | > 3 | > 1 | > 10 | > 0.001 | > 10 | > 10 | 0.09 | > 10 | 0.589 | 0.0419 | > 10 | > 1 | > 1 | > 10 | > 1 | > 1 | > 0.3 | > 20 | > 10 | 3.03 | > 1 | > 3 | > 10 | 0.271 | > 5 | 1.21 | > 10 | > 10 | > 10 | > 10 |
| RPMI-8402 (T-Lymphoblastic Leukemia) | 0.0235 | 0.00686 | 1.03 | 0.504 | 9.05 | 0.183 | 0.0333 | > 10 | > 0.001 | 0.158 | 2.5 | 0.00243 | 0.3 | > 2 | 0.00584 | 1.32 | > 1 | 0.0631 | > 10 | 0.247 | > 1 | > 0.3 | 9.93 | > 10 | 1.3 | 0.0681 | > 3 | 1.15 | > 1 | 4.09 | 0.214 | > 10 | 5.45 | 1.63 | 4.4 |
| NTERA-2-cl-D1 (Other Solid Carcinomas) | > 0.3 | 0.415 | > 10 | > 1 | > 10 | > 3 | > 1 | > 10 | > 0.001 | > 10 | > 10 | 0.00592 | > 10 | > 2 | > 1 | > 10 | > 1 | 0.532 | > 10 | > 1 | > 1 | > 0.3 | > 20 | > 10 | > 10 | 0.0236 | > 3 | > 10 | > 1 | > 5 | 0.453 | > 10 | > 10 | > 10 | > 10 |
| L-363 (Plasma Cell Myeloma) | 0.258 | 0.00531 | 9.12 | 0.134 | > 10 | 0.231 | > 1 | > 10 | > 0.001 | > 10 | > 10 | > 0.3 | > 10 | > 2 | 0.00532 | 1.22 | 0.694 | 0.381 | > 10 | > 1 | > 1 | > 0.3 | > 20 | > 10 | 2.77 | > 1 | > 3 | 8.5 | > 1 | > 5 | > 10 | > 10 | > 10 | > 10 | > 10 |

From the supplement of paper PMC11061612
